Earlier results in patent publication US6979682B2, “Platelet-activating factor antagonist inhibition of angiogenesis and tumor growth induced by basic fibroblast” (Board of Supervisors of Louisiana State University and …, priority 2001, dated 2005).
“Also recorded” adds a separate entry of the source.

How the values were obtained:
[1] = system: PAF binding sites (microsomal intracellular membranes; synaptosomal plasma membrane); conditions: Marcheselli et al., 1990; cited from earlier work
[2] = system: angiogenesis stimulated by HGF, TNF-α or bFGF; conditions: cited from earlier work

Row | Compound | binding to the intracellular PAF binding sites [1] | angiogenesis stimulated by bFGF ([2]; Camussi et al., 1997, Montrucchio et al.) | angiogenesis stimulated by HGF ([2]; Camussi et al., 1997) | angiogenesis stimulated by TNF-α ([2]; Montrucchio et al.)
1 | CCCCCCCCCCCCCCCCCCNC(=O)OCC(COP(=O)([O-])OCC[n+]1ccsc1)OC (stereo not shown) [CV-3988, reference compound] | known to bind to the intracellular PAF binding sites |  |  | 
2 | Cc1nnc2n1-c1sc3c(c1C(c1ccccc1Cl)=NC2)CC(C(=O)N1CCOCC1)C3 (stereo not shown) [WEB 2170] |  | did not inhibit; also recorded: not inhibited | inhibited | inhibited
